Test results as given in patent US10941151B2, “Chiral N-acyl-5,6,7(8-substituted)-tetrahydro-[1,2,4]triazolo[4,3-a]pyrazines as selective NK-3 receptor antagonists, pharmaceutical composition, methods for use in NK-3 receptor mediated disorders and chiral synthesis thereof” (Ogeda SA, priority 2011, dated 2021).

What was measured:
[1] = system: circulating levels of luteinizing hormone (LH); assay: Castrated male rat model, circulating luteinizing hormone (LH); assay type: in vivo; details: single intravenous 10 mg/kg dose, castrated male Sprague-Dawley rats, 1 hour after dosing
From the text: Vehicle, N=10 rats; Compound n^o 1, N=9 rats.
Vehicle, n=5 rats; Compound n^o 19, n=5 rats.
In humans and rodents, castration is well-precedented to permit heightened, persistent GnRH signaling and consequent elevation of circulating LH. Thus, a castrated rat model is used to provide a broad index for measurement of LH inhibition as a marker of test compound inhibition of the GnRH signaling pathway.
Castrated adult male Sprague-Dawley (SD) rats (150-175 g,) were purchased from Janvier (St Berthevin, France). […] The animals were allowed 2 weeks of postoperative recovery prior to study. Animals were handled on a daily basis. Standard diet and tap water were provided ad libitum. Animal cage litters were changed once a week. On the study day, animals were acclimated to the procedure room for a period of one hour prior to the initiation of the experiment.
Compounds of the invention were formulated as a […] with 90 g/L (2-Hydroxypropyl)-β-CycloDextrin.
After basal sampling (T0) a single dose of compounds of the invention or vehicle was administrated intravenously to rats. Blood was then collected at 60 min post dosing. Blood samples were obtained via tail vein bleed, drawn into EDTA-containing tubes and centrifuged immediately. […] Serum LH levels were determined using radioimmunoas say kit from RIAZEN—Rat LH, Zentech (Liège, Belgium). […]

[2] = system: circulating levels of testosterone; assay: Gonad-intact adult male rat, circulating testosterone; assay type: in vivo; details: single intravenous 50 mg/kg dose, gonad-intact male Sprague-Dawley rats, over 210 minute test period (AUC)

## Cc1csc(-c2nnc3n2CCN(C(=O)c2ccc(-c4cccs4)cc2)[C@@H]3C)n1 [Compound 19, (R)-(8-methyl-3-(4-methylthiazol-2-yl)-5,6-dihydro-[1,2,4]triazolo[4,3-a]pyrazin-7(8H)-yl)(4-(thiophen-2-yl)phenyl)methanone]
[1]
  circulating LH levels: significantly suppressed

## Cc1nc(-c2nnc3n2CCN(C(=O)c2ccc(-c4cccs4)cc2)[C@@H]3C)cs1 [Compound 1, (R)-(8-methyl-3-(2-methylthiazol-4-yl)-5,6-dihydro-[1,2,4]triazolo[4,3-a]pyrazin-7(8H)-yl)(4-(thiophen-2-yl)phenyl)methanone]
[2]
  plasma testosterone levels: significantly suppressed
[1]
  circulating LH levels: significantly suppressed
